According to US8952024B2, “Herbicidal pyrimidone derivatives” (E I du Pont de Nemours and Company, priority 2009, dated 2015):

What was measured:
Type in all cases: in vivo
[1] = system: ducksalad (Heteranthera limosa); assay: Test B flooded paddy test; details: for Plant response rating, Flood, Ducksalad: 250 g ai/ha, flooded paddy test, visual rating on 0 to 100 scale (0 no effect, 100 complete control) after 13 to 15 days; for Plant response rating, Ducksalad: Flood (flooded paddy test), 13 to 15 days; for Ducksalad plant response rating: Flood, 31 g ai/ha, scale 0 to 100 (0 no effect, 100 complete control)
Procedure, shortened: (§1)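 Plants were grown to the 2-leaf stage, then pots were flooded to 3 cm above the soil and compounds were applied directly into the paddy water. That depth was held throughout. After 13 to 15 days in a greenhouse, injury was visually rated against controls on a 0–100 scale.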

[2] = system: barnyardgrass (Echinochloa crus-galli); assay: Test B flooded paddy test; details: for Plant response rating, Flood, Barnyardgrass: 250 g ai/ha, flooded paddy test, visual rating on 0 to 100 scale (0 no effect, 100 complete control) after 13 to 15 days; for Plant response rating, Barnyardgrass: Flood (flooded paddy test), 13 to 15 days; for Barnyardgrass plant response rating: Flood, 31 g ai/ha, scale 0 to 100 (0 no effect, 100 complete control)
Procedure, shortened: as §1

[3] = system: umbrella sedge (Cyperus difformis); assay: Test B flooded paddy test; details: for Plant response rating, Flood, Sedge, Umbrella: 250 g ai/ha, flooded paddy test, visual rating on 0 to 100 scale (0 no effect, 100 complete control) after 13 to 15 days; for Plant response rating, Sedge, Umbrella: Flood (flooded paddy test), 13 to 15 days; for Sedge, Umbrella plant response rating: Flood, 31 g ai/ha, scale 0 to 100 (0 no effect, 100 complete control)
Procedure, shortened: as §1

[4] = system: rice (Oryza sativa); assay: Test B flooded paddy test; details: for Plant response rating, Flood, Rice: 250 g ai/ha, flooded paddy test, visual rating on 0 to 100 scale (0 no effect, 100 complete control) after 13 to 15 days; for Plant response rating, Rice: Flood (flooded paddy test), 13 to 15 days; for Rice plant response rating: Flood, 31 g ai/ha, scale 0 to 100 (0 no effect, 100 complete control)
Procedure, shortened: as §1

[5] = system: chickweed (Stellaria media); assay: Test B postemergence plant response; details: for Chickweed plant response rating (0 to 100 scale): 62 g ai/ha, 0 is no effect
Procedure, shortened: (§2)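 Plants grown in peat/vermiculite medium were sprayed postemergence at 2–18 cm height (1- to 4-leaf stage). After 13–15 days in the greenhouse, response was rated visually against untreated controls on a 0–100 scale (0 no effect, 100 complete control).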

[6] = system: winter barley (Hordeum vulgare); assay: Test B postemergence plant response; details: for Barley plant response rating (0 to 100 scale): 62 g ai/ha, 0 is no effect
Procedure, shortened: as §2

[7] = system: windgrass (Apera spica-venti); assay: Test B postemergence plant response; details: for Windgrass plant response rating (0 to 100 scale): 62 g ai/ha, 0 is no effect
Procedure, shortened: as §2

[8] = system: canarygrass (Phalaris minor); assay: Test B postemergence plant response; details: for Canarygrass plant response rating (0 to 100 scale): 62 g ai/ha, 0 is no effect
Procedure, shortened: as §2

[9] = system: morningglory (Ipomoea coccinea); assay: Test B pre-/postemergence plant response; details: for Morningglory plant response rating (0 to 100 scale): 62 g ai/ha, 0 is no effect
Procedure, shortened: (§3)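 Seeds were sown in loam soil/sand blend and treated preemergence with compound in non-phytotoxic solvent mixture containing surfactant; postemergence sprays, same formulation, went onto plants 2 to 18 cm (1- to 4-leaf stage) in peat-based planting medium. Greenhouse 13 to 15 days, then visual rating versus untreated controls, 0 (no effect) to 100 (complete control).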

[10] = system: bermudagrass (Cynodon dactylon); assay: Test B pre-/postemergence plant response; details: for Bermudagrass plant response rating (0 to 100 scale): 62 g ai/ha, 0 is no effect
Procedure, shortened: as §3

[11] = 62 g ai/ha, scale of 0 to 100 where 0 is no effect and 100 is complete control
[12] = 125 g ai/ha, scale 0 to 100, 0 is no effect, 100 is complete control
[13] = postemergence, 100 is complete control, 13 to 15 days
[14] = Postemergence, 31 g ai/ha, 0 to 100 scale (0 no effect, 100 complete control)
[15] = Postemergence, 125 g ai/ha, scale 0 to 100 (0 no effect, 100 complete control)
[16] = Postemergence, 250 g ai/ha, scale 0 to 100 (0 no effect, 100 complete control), 13 to 15 days
[17] = 31 g ai/ha, postemergence, scale 0 to 100, 0 is no effect, 100 is complete control
[18] = Postemergence, 125 g ai/ha, visual rating after 13 to 15 days, scale 0 (no effect) to 100 (complete control)
[19] = Postemergence, 250 g ai/ha, scale 0 to 100 (0 no effect, 100 complete control)

Structure (SMILES): O=C1CCCC(O)=C1C(=O)c1cnc(-c2ccccc2)n(C2CCCCCC2)c1=O [Compound 130]
- Plant response rating, Flood, Ducksalad [1]: 100
- Plant response rating, Ducksalad [1, 11]: 80
- Plant response rating, Ducksalad [1, 12]: 80
- Ducksalad plant response rating [1]: 60
- Plant response rating, Flood, Barnyardgrass [2]: 85
- Plant response rating, Barnyardgrass [2, 11]: 0
- Plant response rating, Barnyardgrass [2, 12]: 0
- Barnyardgrass plant response rating [2]: 0
- Plant response rating, Flood, Sedge, Umbrella [3]: 100
- Plant response rating, Sedge, Umbrella [3, 11]: 60
- Plant response rating, Sedge, Umbrella [3, 12]: 75
- Sedge, Umbrella plant response rating [3]: 40
- Plant response rating, Flood, Rice [4]: 25
- Plant response rating, Rice [4, 11]: 0
- Plant response rating, Rice [4, 12]: 0
- Rice plant response rating [4]: 0
- Chickweed plant response rating (0 to 100 scale) [5, 13]: 98
- Plant response rating, Chickweed [5, 14]: 98
- Plant response rating, Chickweed [5, 15]: 100
- Plant response rating, Chickweed [5, 16]: 100
- Barley plant response rating (0 to 100 scale) [6, 13]: 0
- Plant response rating, Barley [6, 14]: 0
- Plant response rating, Barley [6, 15]: 0
- Plant response rating, Barley [6, 16]: 0
- Windgrass plant response rating (0 to 100 scale) [7, 13]: 65
- Plant response rating, Windgrass [7, 14]: 60
- Plant response rating, Windgrass [7, 15]: 75
- Plant response rating, Windgrass [7, 16]: 85
- Canarygrass plant response rating (0 to 100 scale) [8, 13]: 20
- Plant response rating, Canarygrass [8, 14]: 5
- Plant response rating, Canarygrass [8, 15]: 20
- Plant response rating, Canarygrass [8, 16]: 25
- Morningglory plant response rating (0 to 100 scale) [9, 13]: 95
- Plant response rating, Morningglory [9, 14]: 95
- Plant response rating, Morningglory [9, 15]: 100
- Plant response rating, Morningglory [9, 16]: 100
- Bermudagrass plant response rating (0 to 100 scale) [10, 13]: 90
- Plant response rating, Bermudagrass [10, 14]: 75
- Plant response rating, Bermudagrass [10, 15]: 90
- Plant response rating, Bermudagrass [10, 16]: 95

Structure (SMILES): CCCn1c(-c2cc(Cl)cc(Cl)c2)ncc(C(=O)C2=C(O)CCCC2=O)c1=O [Compound 173]
- Plant response rating, Ducksalad [1, 12]: 75
- Ducksalad plant response rating [1]: 30
- Plant response rating, Barnyardgrass [2, 12]: 15
- Barnyardgrass plant response rating [2]: 0
- Plant response rating, Sedge, Umbrella [3, 12]: 85
- Sedge, Umbrella plant response rating [3]: 0
- Plant response rating, Rice [4, 12]: 15
- Rice plant response rating [4]: 0
- Plant response rating, Chickweed [5, 14]: 65
- Plant response rating, Chickweed [5, 15]: 100
- Plant response rating, Chickweed [5, 16]: 100
- Barley plant response rating (0 to 100 scale) [6, 13]: 20
- Plant response rating, Barley [6, 14]: 5
- Plant response rating, Barley [6, 15]: 35
- Plant response rating, Barley [6, 16]: 50
- Plant response rating, Windgrass [7, 14]: 30
- Plant response rating, Windgrass [7, 15]: 70
- Plant response rating, Windgrass [7, 16]: 75
- Plant response rating, Canarygrass [8, 14]: 10
- Plant response rating, Canarygrass [8, 15]: 40
- Plant response rating, Canarygrass [8, 16]: 80
- Plant response rating, Morningglory [9, 14]: 75
- Plant response rating, Morningglory [9, 15]: 80
- Plant response rating, Morningglory [9, 16]: 95
- Bermudagrass plant response rating (0 to 100 scale) [10, 13]: 98
- Plant response rating, Bermudagrass [10, 14]: 98
- Plant response rating, Bermudagrass [10, 15]: 100
- Plant response rating, Bermudagrass [10, 16]: 100

Structure (SMILES): O=C1CCCC(O)=C1C(=O)c1cnc(-c2ccc(Br)cc2)n(-c2ccccc2)c1=O [Compound 70]
- Plant response rating, Flood, Ducksalad [1]: 0
- Plant response rating, Ducksalad [1, 11]: 0
- Plant response rating, Ducksalad [1, 12]: 0
- Ducksalad plant response rating [1]: 0
- Plant response rating, Flood, Barnyardgrass [2]: 20
- Plant response rating, Barnyardgrass [2, 11]: 0
- Plant response rating, Barnyardgrass [2, 12]: 0
- Barnyardgrass plant response rating [2]: 0
- Plant response rating, Flood, Sedge, Umbrella [3]: 20
- Plant response rating, Sedge, Umbrella [3, 11]: 0
- Plant response rating, Sedge, Umbrella [3, 12]: 20
- Sedge, Umbrella plant response rating [3]: 0
- Plant response rating, Flood, Rice [4]: 20
- Plant response rating, Rice [4, 11]: 0
- Plant response rating, Rice [4, 12]: 0
- Rice plant response rating [4]: 0
- Plant response rating, Chickweed [5, 17]: 80
- Chickweed plant response rating (0 to 100 scale) [5, 13]: 90
- Plant response rating, Chickweed [5, 18]: 98
- Plant response rating, Chickweed [5, 19]: 100
- Plant response rating, Barley [6, 17]: 10
- Barley plant response rating (0 to 100 scale) [6, 13]: 30
- Plant response rating, Barley [6, 18]: 90
- Plant response rating, Barley [6, 19]: 90
- Plant response rating, Windgrass [7, 17]: 80
- Windgrass plant response rating (0 to 100 scale) [7, 13]: 85
- Plant response rating, Windgrass [7, 18]: 90
- Plant response rating, Windgrass [7, 19]: 100
- Plant response rating, Canarygrass [8, 17]: 50
- Canarygrass plant response rating (0 to 100 scale) [8, 13]: 80
- Plant response rating, Canarygrass [8, 18]: 85
- Plant response rating, Canarygrass [8, 19]: 98
- Plant response rating, Morningglory [9, 17]: 98
- Morningglory plant response rating (0 to 100 scale) [9, 13]: 100
- Plant response rating, Morningglory [9, 18]: 100
- Plant response rating, Morningglory [9, 19]: 100
- Plant response rating, Bermudagrass [10, 17]: 75
- Bermudagrass plant response rating (0 to 100 scale) [10, 13]: 85
- Plant response rating, Bermudagrass [10, 18]: 95
- Plant response rating, Bermudagrass [10, 19]: 98
